Reference: patent publication US20240173329A1, “BELVARAFENIB FOR USE IN TREATMENT OF BRAIN CANCERS” (Genentech, Inc., priority 2021, published 2024)
Like-named read-outs stand apart in the source and are kept apart here.

Tests used:
[1] = Pharmacokinetic profile and brain distribution in rats after oral administration; assay type: in vivo, rats (SD); conditions: for Kp / Cmax / Tmax / AUC(0-t) / MRT last / half-life / AUC(0-inf): rat
Experimental: Example 2 evaluated pharmacokinetic profile and brain distribution of belvarafenib in rats after oral administration.
The rat strain was SD supplied by Orient Bio Inc., Korea.
The rats were kept in conventional animal lab cages for 5 days for acclimation before the start of the experiment. The cages were polysulfone 1291H (W425×D266×H185 mm, Techniplast, Italy). Three rats were housed in each cage at a temperature of 22±2° C., a relative humidity of 50±20%, a ventilation frequency of 10-15 times/h, a 12 hour light/dark cycle, a light intensity of 150-300 Lux, at least weekly cage replacement. The mice were fed Picolab Rodent diet (5053, Lab Diet, USA) with abundant tap water.
The rats were dosed with belvarafenib dihydrochloride, 99.6% purity, that was stored at room temperature. Dosing was based on active ingredient free base and was corrected for assay and water content. The dosing vehicle was DMSO (10%), PEG 400 (50%), and deionized water (40%). Belvarafenib for dosing (169.51 mg) was dissolved in 86.93 mL of the vehicle for a final concentration of 1.950 mg/mL.
In a single one day dosing regimen, rats were fasted overnight. The body weight of the rats was measured on the day of treatment, from which dosing volumes were set. […] The rats were fed 4 hours post-dose.
Blood (0.3 mL) was collected from the abdominal artery at 0.5, 1, 2, 4, 7, 24, 48, and 72 hours after belvarafenib administration. Plasma was obtained by centrifugation at 12,000 rpm for 2 minutes (Eppendorf) and then harvested and stored at −20° C. (Panasonic, MDF-U334-PK) until analysis.
After bloodletting of rats at each time point, the brain was collected immediately without perfusion. Brain tissue was washed one to two times with saline to remove surface blood. The brains were then trimmed. The collected brain tissue was accurately weighed and mixed with 4-fold saline based on brain weight (a final dilution factor of 5-fold). Each brain sample was then homogenized and placed in a 1.5 mL tube and stored at −20° C. (Panasonic, MDF-U334-PK) until analysis.
Plasma and brain of untreated animals were similarly obtained for use as a blank matrix.
Plasma and brain concentrations of belvarafenib determined by analysis using LC-MS/MS (Waters UPLC H-Class/Xevo TQ (Waters USA)).
Pharmacokinetic parameters of belvarafenib were calculated from plasma and brain concentration-time data by a non-compartmental method using Phoenix™ WinNonlin 8.1 (Certara, USA). The peak plasma and brain concentration (Cmax) and the corresponding time (Tmax) were directly obtained from the raw data. The area under the plasma curve (AUClast) was obtained by linear-log trapezoidal summation. Other PK parameters such as AUC from dosing time extrapolated to infinity (AUCinf), half-life (t1/2) and mean residence time (MTRlast) were calculated using WinNonlin. The plasma and brain concentrations of belvarafenib were presented as MEAN±S.D. The brain to plasma (B/P) ratio of Belvarafenib was calculated by dividing AUClast in the brain by AUClast in the plasma.

EPHA2 = EPHA2 (Homo sapiens, UniProt P29317); test: panel of 189 kinase assays; assay type: biochemical
Sequence of EPHA2 (P29317 24-976, species assumed): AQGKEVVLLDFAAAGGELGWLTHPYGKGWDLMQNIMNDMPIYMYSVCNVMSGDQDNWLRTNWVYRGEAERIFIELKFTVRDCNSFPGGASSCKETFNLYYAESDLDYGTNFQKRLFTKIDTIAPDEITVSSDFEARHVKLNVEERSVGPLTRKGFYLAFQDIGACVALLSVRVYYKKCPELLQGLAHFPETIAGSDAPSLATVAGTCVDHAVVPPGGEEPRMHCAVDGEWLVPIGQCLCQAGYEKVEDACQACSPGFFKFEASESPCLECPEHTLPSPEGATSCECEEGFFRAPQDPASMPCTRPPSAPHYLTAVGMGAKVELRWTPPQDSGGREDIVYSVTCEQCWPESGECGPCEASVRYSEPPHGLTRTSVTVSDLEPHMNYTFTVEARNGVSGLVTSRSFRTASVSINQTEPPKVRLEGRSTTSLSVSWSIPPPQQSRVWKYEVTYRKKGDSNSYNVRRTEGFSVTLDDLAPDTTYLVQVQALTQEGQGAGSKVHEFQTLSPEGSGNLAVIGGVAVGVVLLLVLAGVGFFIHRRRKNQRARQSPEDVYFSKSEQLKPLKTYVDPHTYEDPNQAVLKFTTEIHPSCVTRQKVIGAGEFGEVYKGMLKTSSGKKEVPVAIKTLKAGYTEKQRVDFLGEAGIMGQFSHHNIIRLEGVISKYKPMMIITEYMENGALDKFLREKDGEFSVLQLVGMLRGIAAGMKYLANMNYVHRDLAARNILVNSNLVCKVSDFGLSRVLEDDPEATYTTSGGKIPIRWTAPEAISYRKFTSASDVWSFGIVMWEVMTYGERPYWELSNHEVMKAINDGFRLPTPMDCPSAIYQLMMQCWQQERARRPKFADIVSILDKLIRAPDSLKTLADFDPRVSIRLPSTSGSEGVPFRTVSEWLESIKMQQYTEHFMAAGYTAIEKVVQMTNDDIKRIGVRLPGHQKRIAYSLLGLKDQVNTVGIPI

EPHB2 = molecular target: T1, EPHB2 (Homo sapiens, UniProt P29323); test: panel of 189 kinase assays; assay type: biochemical
T1 sequence (P29323 19-1055): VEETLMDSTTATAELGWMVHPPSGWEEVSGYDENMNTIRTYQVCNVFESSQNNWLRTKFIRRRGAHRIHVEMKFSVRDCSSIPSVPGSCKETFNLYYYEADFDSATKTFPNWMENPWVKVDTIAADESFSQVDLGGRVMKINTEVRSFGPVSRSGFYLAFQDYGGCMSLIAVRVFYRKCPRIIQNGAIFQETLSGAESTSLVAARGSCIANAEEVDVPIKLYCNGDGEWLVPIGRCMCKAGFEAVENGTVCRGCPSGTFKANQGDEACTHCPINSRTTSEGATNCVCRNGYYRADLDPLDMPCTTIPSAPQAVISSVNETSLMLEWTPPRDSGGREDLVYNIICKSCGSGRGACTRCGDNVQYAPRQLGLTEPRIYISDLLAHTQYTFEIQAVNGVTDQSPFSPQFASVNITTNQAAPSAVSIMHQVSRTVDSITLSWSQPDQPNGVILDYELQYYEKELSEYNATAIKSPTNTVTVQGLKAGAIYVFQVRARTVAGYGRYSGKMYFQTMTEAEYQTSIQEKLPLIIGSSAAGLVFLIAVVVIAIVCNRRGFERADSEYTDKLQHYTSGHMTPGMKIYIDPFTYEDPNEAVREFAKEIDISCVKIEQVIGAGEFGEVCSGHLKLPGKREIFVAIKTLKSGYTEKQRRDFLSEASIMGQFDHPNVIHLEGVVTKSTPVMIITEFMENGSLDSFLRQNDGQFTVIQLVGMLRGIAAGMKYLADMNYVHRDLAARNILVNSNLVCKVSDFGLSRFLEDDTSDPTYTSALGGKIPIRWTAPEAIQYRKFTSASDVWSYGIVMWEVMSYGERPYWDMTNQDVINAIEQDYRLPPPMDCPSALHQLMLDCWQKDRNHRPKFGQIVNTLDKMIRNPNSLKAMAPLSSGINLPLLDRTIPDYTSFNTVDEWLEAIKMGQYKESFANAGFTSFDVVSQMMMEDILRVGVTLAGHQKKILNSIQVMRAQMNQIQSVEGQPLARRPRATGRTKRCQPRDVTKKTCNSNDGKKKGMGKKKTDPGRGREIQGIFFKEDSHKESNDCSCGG

[2] = SD (Sprague-Dawley), oral 30 mg/kg, brain
[3] = SD (Sprague-Dawley), oral 30 mg/kg, plasma
[4] = male, SD, oral 15 mg/kg, plasma

Q: With `Cc1ccc2c(Nc3cccc(Cl)c3F)nccc2c1NC(=O)c1csc2c(N)ncnc12` [Belvarafenib, 4-amino-N-(1-((3-chloro-2-fluorophenyl)amino)-6-methylisoquinolin-5-yl)thieno[3,2-d]pyrimidine-7-carboxamide] as the compound, how does the Kp ([1]; SD (Sprague-Dawley), oral 30 mg/kg, AUClast brain / AUClast plasma, read-out: B/P ratio) read?
A: 1.2

Q: And the Cmax [1, 2]?
A: 4880 ng/g

Q: What about the Tmax [1, 2] of the same compound?
A: 7 h

Q: And the AUC(0-t) [1, 3]?
A: 98000 ng·h/mL

Q: What about the Cmax [1, 3] of the same compound?
A: 4150 ng/mL

Q: And the Tmax [1, 3]?
A: 7 h

Q: What about the Kp ([1]; SD, oral 30 mg/kg, AUClast brain / AUClast plasma, read-out: B/P ratio) of the same compound?
A: 1.2

Q: And the Tmax ([1]; SD, oral 30 mg/kg, brain)?
A: 4 h

Q: And the Kp ([1]; male, SD, brain/plasma, oral, 15 mg/kg, read-out: B/P)?
A: 1.38

Q: What about the Kp ([1]; male, SD, oral 15 mg/kg, AUClast brain / AUClast plasma, read-out: B/P ratio) of the same compound?
A: 1.38

Q: And the Cmax ([1]; male, SD, oral 15 mg/kg, brain)?
A: 3910 ng/g

Q: And the MRT last ([1]; male, SD, oral 15 mg/kg, brain)?
A: 15.5 h

Q: What about the Tmax ([1]; male, SD, oral 15 mg/kg, brain) of the same compound?
A: 7 h

Q: And the half-life ([1]; male, SD, oral 15 mg/kg, brain)?
A: 9 h

Q: What about the AUC(0-inf) [1, 4] of the same compound?
A: 50600 ng·h/mL

Q: What about the AUC(0-t) [1, 4] of the same compound?
A: 49400 ng·h/mL

Q: What about the Cmax [1, 4] of the same compound?
A: 2130 ng/mL

Q: And the MRT last [1, 4]?
A: 18 h

Q: What about the Tmax [1, 4] of the same compound?
A: 4 h

Q: And the half-life [1, 4]?
A: 12.5 h

Q: What about the AUC(0-inf) ([1]; male, SD, oral 30 mg/kg, plasma) of the same compound?
A: 100000 ng·h/mL

Q: And the AUCinf ([1]; oral 15 mg/kg, brain)?
A: 68350.0 ng·h/g

Q: And the AUClast ([1]; oral 15 mg/kg, brain)?
A: 67954.7 ng·h/g

Q: And the AUCinf ([1]; oral 30 mg/kg, brain)?
A: 115222.3 ng·h/g

Q: What about the AUClast ([1]; oral 30 mg/kg, brain) of the same compound?
A: 113670.1 ng·h/g

Q: And the general clinical signs ([1]; single oral 15 mg/kg, pre- and post-dosing periods)?
A: No clinical signs were observed

Q: And the inhibition at 1 µM (EPHA2)?
A: > 90%

Q: And the inhibition at 1 µM (EPHB2)?
A: > 90%
